From publication PMC11878344 (Angewandte Chemie (International Ed. in English), 2025)

molecular target: T1, human MAGL (Homo sapiens, UniProt Q99685); assay: In vitro MAGL inhibition assay (2-AG hydrolysis followed by mass spectrometry); type: biochemical; conditions: Supporting Information Tables S1-S5; read-out: IC50 hMAGL
T1 sequence (Q99685 1-303): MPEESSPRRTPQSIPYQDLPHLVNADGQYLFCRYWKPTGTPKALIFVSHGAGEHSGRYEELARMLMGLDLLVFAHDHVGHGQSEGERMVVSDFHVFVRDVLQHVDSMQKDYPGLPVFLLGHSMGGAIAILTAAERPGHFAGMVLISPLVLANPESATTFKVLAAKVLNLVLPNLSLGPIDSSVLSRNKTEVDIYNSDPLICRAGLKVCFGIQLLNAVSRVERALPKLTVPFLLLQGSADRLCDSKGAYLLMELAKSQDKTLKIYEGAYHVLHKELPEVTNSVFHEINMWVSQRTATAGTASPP
Experimental: (§1) 4. Experimental Details of Biochemical Assays and Crystal Structure
(§2) In Vitro MAGL Inhibition Assay
(§3) Compounds were profiled for MAGL inhibitory activity by determining the enzymatic activity by following the hydrolysis of the natural substrate 2-arachidonoylglycerol (2-AG), resulting in arachidonic acid, which can be followed by mass spectrometry. The 2-AG assay was carried out in 384 well assay plates (PP, Greiner Cat# 784201) in a total volume of 20 µL. Compound dilutions were made in 100% DMSO (VWR Chemicals 23500.297) in a polypropylene plate in 3-fold dilution steps to give a final concentration range in the assay from 12.5 µM to 0.8 pM. 0.25µL compound dilutions (100% DMSO) were added to 9 µL MAGL in assay buffer (50 mM TRIS (GIBCO, 15567-027), 1 mM EDTA (Fluka, 03690-100 mL), 0.01% (v/v) Tween. After shaking, the plate was incubated for 15 min at RT. To start the reaction, 10 µL 2-arachidonoylglycerol in assay buffer was added. The final concentrations in the assay were 50 pM MAGL and 8 µM 2-arachidonoylglyerol. After shaking and 30 min incubation at RT, the reaction was quenched by the addition of 40µL of ACN containing 4 µM of d8-arachidonic acid. The amount of arachidonic acid was traced by an online SPE system (Agilent Rapidfire) coupled to a triple quadrupole mass spectrometer (Agilent 6460). A C18 SPE cartridge (G9205A) was used in an ACN/water liquid setup. The mass spectrometer was operated in negative electrospray mode following the mass transitions 303.1 → 259.1 for arachidonic acid and 311.1 → 267.0 for d8-arachidonic acid. The activity of the compounds was calculated based on the ratio of intensities [arachidonic acid / d8- […]
(§4) This assay was performed as first described before.[39] […]

IC50 [nM]	SMILES
11	O=C1CO[C@H]2CCN(C(=O)N3CC4(CC(OCc5ccccc5OCCNC(=O)OCc5ccccc5)C4)C3)C[C@H]2N1 [Compound S3]
15	O=C1CO[C@H]2CCN(C(=O)N3CC4(CCC(OCc5ccccc5OCCNC(=O)OCc5ccccc5)CC4)C3)C[C@H]2N1 [Compound S4]
7	O=C1CO[C@H]2CCN(C(=O)N3CCC4(CC3)CC(OCc3ccccc3OCCNC(=O)OCc3ccccc3)C4)C[C@H]2N1 [Compound S5]
97	O=C1CO[C@H]2CCN(C(=O)N3C[C@@H]4C(COCc5ccccc5OCCNC(=O)OCc5ccccc5)[C@@H]4C3)C[C@H]2N1 (stereo partly shown) [Compound S6]
3	O=C1CO[C@H]2CCN(C(=O)N3CC(COCc4ccccc4OCCCNC(=O)OCc4ccccc4)C3)C[C@H]2N1 [Compound S7]
46	O=C1CO[C@H]2CCN(C(=O)N3CC(COCc4ccccc4OCCCCCNC(=O)OCc4ccccc4)C3)C[C@H]2N1 [Compound S8]
44	O=C1CO[C@H]2CCN(C(=O)N3CC(OCc4cccc(OCCNC(=O)OCc5ccccc5)c4)C3)C[C@H]2N1 [Compound S9]
28	O=C1CO[C@H]2CCN(C(=O)N3CC4(CC(OCc5cccc(OCCNC(=O)OCc6ccccc6)c5)C4)C3)C[C@H]2N1 [Compound S11]
7.5	O=C1COc2ccc(C(=O)N3CC(COCc4ccccc4OCCNC(=O)OCc4ccccc4)C3)cc2N1 [Compound S18]
9.2	O=C(NCCOc1ccccc1COCC1CN(C(=O)CC[C@@H]2COC(=O)N2)C1)OCc1ccccc1 [Compound S19]
0.122	CN1/C(=C\C=C\C2=[N+](CCCCCC(=O)NCCOc3ccccc3CC3CC4(C3)CN(C(=O)N3CC5(COC(=O)N5)C3)C4)c3ccccc3C2(C)C)C(C)(C)c2ccccc21 [Compound S21]

molecular target: T2, mouse MAGL (Mus musculus, UniProt O35678); assay: as above; type: biochemical; conditions: Supporting Information Tables S1-S5; read-out: IC50 mMAGL
T2 sequence (O35678 1-303): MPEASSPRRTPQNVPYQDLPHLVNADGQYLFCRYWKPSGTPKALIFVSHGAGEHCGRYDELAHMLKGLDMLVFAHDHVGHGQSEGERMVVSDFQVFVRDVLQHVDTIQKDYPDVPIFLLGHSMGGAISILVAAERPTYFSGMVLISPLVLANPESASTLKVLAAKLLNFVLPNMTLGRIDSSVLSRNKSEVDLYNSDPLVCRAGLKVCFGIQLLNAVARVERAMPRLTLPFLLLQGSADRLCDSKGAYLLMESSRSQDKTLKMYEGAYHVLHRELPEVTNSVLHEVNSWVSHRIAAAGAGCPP
Experimental: as §1, §2, §3, §4

IC50 [nM]	SMILES
38	O=C1CO[C@H]2CCN(C(=O)N3CC4(CC(OCc5ccccc5OCCNC(=O)OCc5ccccc5)C4)C3)C[C@H]2N1 [Compound S3]
38	O=C1CO[C@H]2CCN(C(=O)N3CC4(CCC(OCc5ccccc5OCCNC(=O)OCc5ccccc5)CC4)C3)C[C@H]2N1 [Compound S4]
21	O=C1CO[C@H]2CCN(C(=O)N3CCC4(CC3)CC(OCc3ccccc3OCCNC(=O)OCc3ccccc3)C4)C[C@H]2N1 [Compound S5]
315	O=C1CO[C@H]2CCN(C(=O)N3C[C@@H]4C(COCc5ccccc5OCCNC(=O)OCc5ccccc5)[C@@H]4C3)C[C@H]2N1 (stereo partly shown) [Compound S6]
7	O=C1CO[C@H]2CCN(C(=O)N3CC(COCc4ccccc4OCCCNC(=O)OCc4ccccc4)C3)C[C@H]2N1 [Compound S7]
144	O=C1CO[C@H]2CCN(C(=O)N3CC(COCc4ccccc4OCCCCCNC(=O)OCc4ccccc4)C3)C[C@H]2N1 [Compound S8]
38	O=C1CO[C@H]2CCN(C(=O)N3CC(OCc4cccc(OCCNC(=O)OCc5ccccc5)c4)C3)C[C@H]2N1 [Compound S9]
76	O=C1CO[C@H]2CCN(C(=O)N3CC4(CC(OCc5cccc(OCCNC(=O)OCc6ccccc6)c5)C4)C3)C[C@H]2N1 [Compound S11]
35	O=C1COc2ccc(C(=O)N3CC(COCc4ccccc4OCCNC(=O)OCc4ccccc4)C3)cc2N1 [Compound S18]
66	O=C(NCCOc1ccccc1COCC1CN(C(=O)CC[C@@H]2COC(=O)N2)C1)OCc1ccccc1 [Compound S19]
0.119	CN1/C(=C\C=C\C2=[N+](CCCCCC(=O)NCCOc3ccccc3CC3CC4(C3)CN(C(=O)N3CC5(COC(=O)N5)C3)C4)c3ccccc3C2(C)C)C(C)(C)c2ccccc21 [Compound S21]
